According to patent publication US20240316136A1, “ANESTHETIC METHOD OF SPOTTED SEABASS WITH PLANT ESSENTIAL OILS” (Shanghai Ocean University, priority 2024, published 2024):

Experiments:
Format in all cases: in vivo, Lateolabrax maculatus
[1] = test system: spotted seabass; test: Sedation, anesthesia induction and resuscitation time of spotted seabass in anesthetic bath; parameters: key to Stage IV (deep anesthesia) time / Resuscitation time / Stage I (light sedation) time / Stage II (deep sedation) time / Stage III (light anesthesia) time: —: No anesthetic effect
Method: • 1. Healthy spotted seabass with uniform sizes and uniform respiration rates were selected and acclimated for 24 h. During the acclimatization period, the water temperature was 22±1° C., the salinity was 16%, the dissolved oxygen was 6 mg/L, pH was 7.5, and the fish-water ratio was 1:50. The metabolic wastes of the spotted seabass were discharged during acclimatization period. • 2. The emulsified Cinnamomum camphora essential oils were added to the aquariums respectively. The water temperature was controlled at 22±1° C. […] The spotted seabass were transferred to aquariums (5 fish per aquarium) with different concentrations of the Cinnamomum camphora essential oil, MS-222 and linalool anesthetics, and anesthetic concentrations, sedation concentrations and duration of anesthesia were recorded for the spotted seabass. • 4. The fish were extracted once deep anesthesia was achieved. Recovery was defined as the restoration of fish to their typical swimming behavior; the resuscitation time of the spotted seabass were recorded. • 5. The optimal concentration range was obtained, and oxidative stress and tissue injury were measured. [table] One-way analysis of variance (ANOVA) was used to evaluate the data (anesthetic induction and recovery time) using SPSS 26.0 software (SPSS Inc., Chicago, IL, USA). The significant variation was determined using Duncan's multiple range test (P<0.05). Graphs were created using Origin software.

[2] = test system: spotted seabass gill tissue; test: Gill tissue histopathology by light microscope after anesthesia
Method: • 1. Healthy spotted seabass with uniform sizes and uniform respiration rates were selected and acclimated for 24 h. During the acclimatization period, the water temperature was 22±1° C., the salinity was 16%, the dissolved oxygen was 6 mg/L, pH was 7.5, and the fish-water ratio was 1:50. The metabolic wastes of the spotted seabass were discharged during acclimatization period. • 2. The emulsified Cinnamomum camphora essential oils were added to the aquariums respectively. The water temperature was controlled at 22±1° C. The concentrations of the emulsified Cinnamomum camphora essential oil were 10, 20, 30, 50, 100, 150, 200 mg/L, respectively, and the same concentrations of MS-222 anesthesia solution and linalool solution were prepared at the same time. • 3. The spotted seabass were transferred to aquariums (5 fish per aquarium) with different concentrations of the Cinnamomum camphora essential oil, MS-222 and linalool anesthetics, and anesthetic concentrations, sedation concentrations and duration of anesthesia were recorded for the spotted seabass. • 4. The fish were extracted once deep anesthesia was achieved. Recovery was defined as the restoration of fish to their typical swimming behavior; the resuscitation time of the spotted seabass were recorded. • 5. The optimal concentration range was obtained, and oxidative stress and tissue injury were measured. […]

[3] = test system: spotted seabass; test: Blood biochemical analysis (RBC, HCT, HGB)
Method: (§1) In accordance with the principles and guiding regulations established by the Animal Protection and Utilization Committee of Shanghai Ocean University (SHOU-DW-2022-059), 200 mg/L MS-222 was used to anesthetize fish. Venous-arterial blood samples were obtained from the caudal vein using a 1 mL syringe with 10% EDTA as an anticoagulant and then preserved in anticoagulation tubes. In addition, another portion of the blood was collected without anticoagulant, then kept at 4° C. for a duration of 12 hours for stationary. The coagulated blood was centrifuged at 4000×g for 20 min at 4° C. The serum was extracted and placed in the refrigerator at −40° C. for testing.
Red blood cell count (RBC), haematocrit (HCT), and hemoglobin (HGB) in blood samples were measured in a Myriad Veterinary Automatic Blood Cell Analyser (BC-2800vet, Shenzhen, China).

[4] = test system: spotted seabass; test: Energy metabolism indexes (glucose, lactic acid); conditions: after anesthesia; comparison between anesthetic groups, P<0.05
Method: as §1
(§2) Acid phosphatase (ACP), glucose (GLU) and lactic acid (LD) kits (Nanjing Jiancheng Bioengineering Institute, Nanjing, China) were used to measure ACP, GLU and LD levels.

[5] = test system: spotted seabass; test: Oxidative stress indicators (SOD, CAT, GSH-Px) in blood
Method: as §1
Superoxide Dismutase (SOD), Catalase (CAT) and Glutathione Peroxidase (GSH-Px) kits (Nanjing Jiancheng Bioengineering Institute, Nanjing, China) were used to determine SOD, CAT and GSH-Px activities in blood.

[6] = test system: spotted seabass; test: Immunological indicators (ACP/AKP, IgM, LZM) in serum
Method: as §1, §2
Lysozyme (LZM) activity was determined by the method of De Souza et al. Serum immunoglobulin M (IgM) concentration was measured using a fish ELISA kit (Nanjing Jiancheng Bioengineering Institute, Nanjing, China).

[7] = after 24 h of recovery, vs initial values, p<0.05
[8] = after 24 h of recovery, vs initial

## CCOC(=O)c1cccc(N)c1.CS(=O)(=O)O [MS-222, tricaine methanesulfonate]
[1]; 5 mg/L in water
  Resuscitation time: —
  Stage I (light sedation) time: —
  Stage II (deep sedation) time: —
  Stage III (light anesthesia) time: —
  Stage IV (deep anesthesia) time: —
[1]; 10 mg/L in water
  Resuscitation time: —
  Stage I (light sedation) time: 90.67 ± 2.08 s
  Stage II (deep sedation) time: —
  Stage III (light anesthesia) time: —
  Stage IV (deep anesthesia) time: —
[1]; 20 mg/L in water
  Resuscitation time: —
  Stage I (light sedation) time: 73.67 ± 5.86 s
  Stage II (deep sedation) time: 111.67 ± 2.08 s
  Stage III (light anesthesia) time: —
  Stage IV (deep anesthesia) time: —
[1]; 30 mg/L in water
  Resuscitation time: —
  Stage I (light sedation) time: 59.00 ± 3.00 s
  Stage II (deep sedation) time: 102.33 ± 2.52 s
  Stage III (light anesthesia) time: 122.67 ± 2.52 s
  Stage IV (deep anesthesia) time: —
[1]; 50 mg/L in water
  Resuscitation time: 217.00 ± 2.00 s
  Stage I (light sedation) time: 39.67 ± 2.52 s
  Stage II (deep sedation) time: 64.00 ± 3.61 s
  Stage III (light anesthesia) time: 83.00 ± 3.00 s
  Stage IV (deep anesthesia) time: 185.00 ± 4.36 s
[1]; 100 mg/L in water
  Resuscitation time: 240.00 ± 2.00 s
  Stage I (light sedation) time: 30.00 ± 3.00 s
  Stage II (deep sedation) time: 41.00 ± 4.58 s
  Stage III (light anesthesia) time: 70.67 ± 4.04 s
  Stage IV (deep anesthesia) time: 174.00 ± 4.58 s
[1]; 150 mg/L in water
  Resuscitation time: 290.33 ± 3.06 s
  Stage I (light sedation) time: 20.67 ± 2.52 s
  Stage II (deep sedation) time: 35.00 ± 2.00 s
  Stage III (light anesthesia) time: 63.00 ± 3.61 s
  Stage IV (deep anesthesia) time: 147.67 ± 2.52 s
[1]; 200 mg/L in water
  Resuscitation time: 349.33 ± 3.06 s
  Stage I (light sedation) time: 19.67 ± 2.52 s
  Stage II (deep sedation) time: 29.67 ± 2.52 s
  Stage III (light anesthesia) time: 55.33 ± 2.08 s
  Stage IV (deep anesthesia) time: 140.33 ± 2.08 s
[1]; criterion: induction in around 3 min and recovery within 5 min
  Optimal anesthetic concentration: 100 mg/L
[1]; in vivo
  Concentration showing deep sedation: 20 mg/L
  Concentration showing light anesthesia effect (Stage III): 30 mg/L
  Concentration showing light sedation effect (Stage I): 10 mg/L
[1]; in vivo, iv
  Minimum concentration required to achieve profound anesthesia (Stage IV): 50 mg/L
[2]
  Gill tissue histopathological changes: chloride cells underwent significant proliferation
[3]; [7]
  Percentage of hematocrit: lower
  Red blood cell count (RBC): higher
[3]; after deep anesthesia, comparison between anesthetic groups, p<0.05
  Percentage of hematocrit: higher
[3]; in vivo
  Hemoglobin concentration: higher
  Red blood cell count (RBC): higher
[4]
  Glucose concentration: Greater
[5]; [8]
  CAT activity: recovered to the initial values
  SOD activity: recovered to the initial values
[5]; after anesthesia
  SOD, CAT and GSH-Px activities: increasing trend
[6]; after anesthesia
  IgM concentration: decreased
[6]; after anesthesia, change from initial
  LZM activity: decreased
[6]; on exposure to anesthetic
  AKP activity: increased
